This note sets out measurements from patent publication US20190201419A1, “COMPOUND AND METHOD FOR THE TREATMENT AND DIAGNOSIS OF NEURODEGENERATIVE CONDITIONS” (Swansea University, priority 2013, published 2019).

The subject of data set [1] is Abca1, Abcg1 and Srebf1 transcript levels. In words: Quantitative PCR of Lxr target genes in SN4741 cells. It is filed as cell-based, mouse. The conditions noted are these: 3 h. On the procedure:
(§1) Quantitative PCR, Total RNA was extracted from SN4741. cells and zebrafish treated with the compounds of interest using the RNeasy Mini Kit (Qiagen), 1 μg was treated with RQ1 RNase-free DNase (Promega) and reverse transcribed using SuperScript II Reverse Transcriptase (invitrogen) and random primers (invitrogen) (RT+reaction). Parallel reactions without reverse transcriptase enzyme were done as a control (RT−reaction), and Sybergreen real-time quantitative PCR assays were performed. Expression levels were obtained by normalization with the Value of the housekeeping gene encoding actin obtained for every sample in parallel assays.

In data set [2] the test system is Islet-1. In words: Islet-1 expression in Tg[Isl1:GFP] zebrafish embryos. The following applies: 10 μM. It is filed as in vivo.
The test system of data set [3] is abca1. In words: abca1 expression in zebrafish embryos. It is filed as in vivo. The following applies: 10 μM. On the procedure:
as §1
Zebrafish Strain and Maintenance Zebrafish were raised on a 14/10 h day/night cycle and were kept at 28.5 ° C. Islet-1:GFP transgenic embryos were obtained via natural spawning and staged in hours or days post fertilization (hpf and dpt) according to Kimmel et al). Embryos older than 24 hpf were treated with 0.03% phenylthiourea (PTU) to inhibit pigmentation. […] Immunocytochemistry was performed using an anti-GFP antibody and fluorescence was viewed and photographed using a Zeiss Axioplan compound microscope and a Zeiss Axiocam digital camera.

Data set [4] deals with Islet1+ oculomotor neurons. In words: In utero injection into the cerebral aqueduct of E11.5 mice. The following applies: for Number of Islet+ oculomotor neurons in vivo: injected at E11.5, analyzed at E13.5. It is filed as in vivo, mouse. From the text:
Animals for in-utero injections and tissue preparation. Female wild-type CD-1 mice ([…]; Charles River Breeding Laboratories) were housed, bred, and treated according to the guidelines of the European Communities Council (directive 86/609/EEC) and the Society for Neuroscience (www.sfr.org/handbook), and all experiments were approved by the local ethical committee. Ethical approval for CD-1 mice experimentation was granted by Stockholm Norra Djurförsökselisks Nämnd number N154/06, N273/11 and N370/09, For embryo analyses, wild type CD-1 mice were mated overnight, and noon of the day the plug was considered E0.5. Embryos were dissected out of the uterine horns in ice-cold PBS, fixed in 4% paraformaldehyde (PFA) for 4 h to overnight, cryoprotected in 15-30% sucrose, frozen in Tissue-Tek Optimum Cutting Temperature (OCT) compound (Sakura Fine-Tek) on dry ice, and stored at −80° C. until use. Serial coronal 14-μm sections of the brain were obtained on a cryostat.
Immunohistochemical analysis of sections. Ten sets of 14 μm serial coronal sections were cut on a cryostat. No. 1 and 6 sets were subjected to immunohistochemistry. Sections were pre-incubated for 1 h in blocking solution followed by incubation at 4° C. overnight with following primary antibodies: anti-TH (1:750, Pel-Freeze), anti-Islet-1 (1:100; Developmental Studies Hybridoma Bank), anti-cleaved caspase-3 (Asp175) (1:100; Cell Signaling Technology). After washing, slides were incubated for 1-2 h at room temperature with the appropriate fluorophore-conjugated (Cy2-, Cy5-, 1:300, Jackson Laboratories; Alexa488-, 555-, and 647-, 1:1000, Invitrogen) secondary antibodies. Confocal pictures were taken with a Zeiss LSM5 Exciter or LSM700 microscope.
In utero intraventricular injections. E11.5 pregnant females were deeply anesthetized using Isofluorane (IsoFlo®, Abbott Labs) and the uterine horns were accessed through an abdominal incision. 1 μL, of the different cholestenoic acids studied (5 mM) or vehicle solution (isopropanol, 50% v/v) was injected into the cerebral aqueduct. […] Embryos were analyzed 48 h later.

Data set [5] deals with zebrafish embryos. In words: Survival of transgenic zebrafish embryos on compound exposure. It is filed as in vivo. On the procedure:
Zebrafish Strain and Maintenance Zebrafish were raised on a 14/10 h day/night cycle and were kept at 28.5 ° C. Islet-1:GFP transgenic embryos were obtained via natural spawning and staged in hours or days post fertilization (hpf and dpt) according to Kimmel et al). Embryos older than 24 hpf were treated with 0.03% phenylthiourea (PTU) to inhibit pigmentation. MO injections were performed using splice site specific zebrafish lxi MO MO injected embryos were immediately dechorionated and transferred to a 96 well plate and exposed to dimethyl sulfoxide (DMSO) treated or ligand treated medium. Compound Exposure. Islet-1:GFP embryos were collected by natural mating and immediately (at 1 cell stage) dechorionated and transferred to a 96 well plate. Each of the compounds tested were obtained as 10 mM stock and diluted in embryo medium to a final concentration of 10 μM, and 200 μL was added to each well. DMSO or propan-2-ol treated embryo medium was taken as control. Ligand solutions were replaced every 12 h with fresh ligand solution prepared in PTU treated embryo medium. Embryos were collected at 48 hpf, fixed for 4 h at room temperature with 4% paraformaldehyde and then washed and kept in PBST. Immunocytochemistry was performed using an anti-GFP antibody and fluorescence was viewed and photographed using a Zeiss Axioplan compound microscope and a Zeiss Axiocam digital camera.

Take `CC(CCC[C@@H](C)[C@H]1CC[C@H]2[C@@H]3[C@H](O)C=C4C[C@@H](O)CC[C@]4(C)[C@H]3CC[C@]12C)C(=O)O` (stereo partly drawn) [3β,7α-diHCA, 3β,7α-dihydroxycholest-5-en-26-oic acid]: in data set [1], the “Abca1, Abcg1 and Srebf1 transcript levels” value was “increased transcripts levels to a similar degree as 22R-HC”. The “Islet-1 mRNA and protein level (qPCR, western blot)” value in data set [2] was “accompanied by an increase in the level of Islet-1 mRNA and protein”. In data set [2] (embryos 48 hpf), the Islet-GFP expression entry is listed as “increased Islet-GFP expression” and the “Number of Islet1+ cells in cranial nerves (III, IV, V, VII, X)” value is given as “had no significant effect on the number of Islet1+cells”. For the same compound, the “Islet-GFP levels after lxr morpholino injection” value in data set [2] (lxr MO vs control scrambled MO) is given as “lxr MO injections abolished the in vivo increase in Islet-GFP levels”. In addition, the abca1 expression entry in data set [3] is recorded as “enhanced expression of abca1”. Moreover, the “Effect of co-injection on the reduction of oculomotor neurons by 3β-HCA” value in data set [4] (co-injection with 3β-HCA) was “this effect was eliminated by co-injection of 3β,7α-diHCA”. Moreover, the “Number of Islet+ oculomotor neurons in vivo” value in data set [4] is recorded as “an increase in the number of Islet+ oculomotor neurons”.
As to `CC(CCC[C@@H](C)[C@H]1CC[C@H]2[C@@H]3CC=C4C[C@@H](O)CC[C@]4(C)[C@H]3CC[C@]12C)C(=O)O` (stereo partly drawn) [3β-HCA, 3β-hydroxycholest-5-en-26-oic acid], the “Abca1, Abcg1 and Srebf1 transcript levels” value in data set [1] is recorded as “induced transcription, but to a lesser extent”. Further, the “Toxic effect on survival of the fish” value in data set [5] is “had a deleterious toxic effect which impaired the survival of the fish”. For the same compound, in data set [4], the “Number of Islet+ oculomotor neurons in vivo” value is listed as “the number of oculomotor neurons was reduced”.
